Test results: paper doi:10.1101/2024.12.13.628427v1 (biorxiv, 2024)

Molecular target: T1, FBXO21 (Homo sapiens, UniProt O94952)
T1 sequence (O94952 1-628): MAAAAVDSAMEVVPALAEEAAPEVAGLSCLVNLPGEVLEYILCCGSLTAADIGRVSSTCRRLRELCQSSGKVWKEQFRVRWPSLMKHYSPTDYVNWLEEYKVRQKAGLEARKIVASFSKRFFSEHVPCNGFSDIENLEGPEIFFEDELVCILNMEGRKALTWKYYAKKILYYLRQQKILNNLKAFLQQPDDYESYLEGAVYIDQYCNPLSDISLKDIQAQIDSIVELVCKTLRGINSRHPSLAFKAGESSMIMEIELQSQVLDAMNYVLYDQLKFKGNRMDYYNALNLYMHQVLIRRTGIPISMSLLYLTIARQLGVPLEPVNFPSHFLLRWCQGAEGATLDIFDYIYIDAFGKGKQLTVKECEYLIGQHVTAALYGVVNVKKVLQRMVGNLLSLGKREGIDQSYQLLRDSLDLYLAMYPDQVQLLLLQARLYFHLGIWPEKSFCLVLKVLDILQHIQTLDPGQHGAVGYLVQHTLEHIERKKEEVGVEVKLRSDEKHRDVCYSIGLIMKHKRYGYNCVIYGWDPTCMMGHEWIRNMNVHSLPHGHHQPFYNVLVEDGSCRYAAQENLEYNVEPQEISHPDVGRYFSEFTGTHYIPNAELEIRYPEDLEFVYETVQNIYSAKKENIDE
Experiment: in vitro ubiquitination of GFP-p85α, Western blot
Format: biochemical

O=C(O)Cc1cc(-c2ccc(F)cc2)ccc1-c1ccc(F)cc1 [57-057]
IC50: 2.4 nM
